The target in assay [1] is T1, human MC4-R (Homo sapiens, UniProt P32245).
T1 construct: expressed in transfected cells; host or cells: HEK293 T-REx (tetracycline-regulated, Invitrogen); cell line from Palatin Technologies with license from the University of Michigan
In words: Competitive inhibition binding assay with [I125]-NDP-α-MSH or Eu-NDP-α-MSH, membranes of HEK-293 cells expressing recombinant hMC4-R. The method, then: A competitive inhibition binding assay was performed using membrane homogenates prepared from HEK-293 cells that express recombinant hMC4-R, hMC3-R, or hMC5-R, and from B-16 mouse melanoma cells (containing endogenous MC1-R). In some instances, HEK-293 cells that express recombinant hMC1-R were employed. In the examples that follow, all MC3-R, MC4-R and MC5-R values are for human recombinant receptors. […] After incubation for 60 minutes at 37° C., the assay mixture was filtered and the membranes washed three times with ice-cold buffer. Filters were dried and counted in a gamma counter for bound radioactivity. […] Maximal specific binding (100%) was defined as the difference in radioactivity (cpm) bound to cell membranes in the absence and presence of 1 μM NDP-α-MSH. […] Ki values for test peptides of the present invention were determined using Graph-Pad Prism® curve-fitting software.
Alternatively, a competitive inhibition binding assay was performed employing Eu-NDP-α-MSH (PerkinElmer Life Sciences catalog No. AD0225) with determination by time-resolved fluorometry (TRF) of the lanthanide chelate. […] After incubation for 90 minutes at 37° C., the reaction was stopped by filtration over AcroWell 96-well filter plates (Pall Life Sciences). The filter plates were washed 4 times with 200 μL of ice-cold phosphate-buffered saline. DELFIA Enhancement solution (PerkinElmer Life Sciences) was added to each well. […] Each assay was conducted in duplicate and mean values were utilized. Ki values were determined by curve-fitting with Graph-Pad Prism® software using a one-site fixed-slope competition binding model.

For assay [2], the target named is T1, human MC4-R. The assay is described as follows: cAMP functional assay in HEK-293 T-REx cells expressing human MC4-R, induced with doxycycline 0.1 ng/mL (low density). In kind it is cell-based. As to conditions: doxycycline 0.1 ng/mL, averages of all comparable assays; for Emax: HEK293-T-REx, maximal cAMP stimulation, NDP-α-MSH = 100%, read-out: Emax; for EC50: human MC4-R cAMP assay, read-out: Ec50. An excerpt: A HEK293 cell line transfected with human MC4-R (from Palatin Technologies, US, with license from the University of Michigan) was used. The human MC4-R was introduced to HEK293 by using the T-REx™ System, Invitrogen. The T-REx™ System employs a tetracycline-regulated mammalian expression system that uses regulatory elements from the E. coli Tn10-encoded tetracycline (Tet) resistance operon. By use of the T-REx™ System, expression of the gene of interest, the human MC4-R gene, is repressed in the absence of tetracycline or doxycycline and induced in the presence of tetracycline or doxycycline (see T-REx™ System Manual, published by Invitrogen).
Cells were then counted and volume was adjusted to 5×10^4 cells per 200 μL.
The cells were then dispensed into 96-well plates (BD 353916) in 198 μL (about 5×10^4) cells/well and incubated for 10 minutes at 37° C. The compound to be tested was diluted with DMSO to a final concentration of 1 mM. Serial dilution was prepared in polypropylene removable 12-well library tube strips (VWR cat #83009-682). 120 μL of the 1 mM compound stock was pipetted in the second column on the plate.
2 μL of the standard, [Nle^4, D-Phe^7]alpha-Melanocyte Stimulating Hormone (NDP-α-MSH), or compound was added to the 96-well plate using the Janus robotic system. All assay samples were run in duplicate (i.e. each sample was in two low dox and two high dox plates, respectively). The plates were gently shaken and incubated for 15 minutes at 37° C. The reaction was stopped by adding 15 μL of lysis buffer per well and the plates were shakened for 30 minutes at room temperature.
Agonist stimulation of the MC4-R activates adenylate cyclase, which is an enzyme that catalyses the formation 3′,5′-cyclic adenosine monophosphate (cAMP) from adenosine triphosphate (ATP). […] Fluoresence ratios were then calculated as described in the CisBio HTRF kit, with GraphPad Prism software used to plot the change in fluorescence percent values versus cAMP concentration using the variable slope dose response curve and, based on calculated cAMP concentrations, to determine EC50 and Emax values. […]

The mark [3] stands for this setting: human MC4-R, averages of all comparable assays, read-out: Ki.

Where two headings read alike, the source gives them in different places. Bridge positions count the residues as written; N and C are the ends. Square brackets hold non-standard residues; d marks the D form. Peptide text beside a SMILES is read from it. * marks the point of attachment. Orn = NCCC[C@H](N)C(=O)O; Bn = c1ccc(C*)cc1

T1 sequence (P32245 whole entry): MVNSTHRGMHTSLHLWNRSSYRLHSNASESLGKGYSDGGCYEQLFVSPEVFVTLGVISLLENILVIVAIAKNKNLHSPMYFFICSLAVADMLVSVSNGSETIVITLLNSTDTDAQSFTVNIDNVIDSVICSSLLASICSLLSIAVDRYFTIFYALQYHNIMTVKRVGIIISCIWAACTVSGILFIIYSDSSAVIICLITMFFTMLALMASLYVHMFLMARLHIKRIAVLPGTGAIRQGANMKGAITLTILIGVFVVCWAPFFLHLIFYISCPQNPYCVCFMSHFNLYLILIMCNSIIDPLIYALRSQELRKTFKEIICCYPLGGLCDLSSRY

Consider `CC(=O)NCCC[C@@H]1NC(=O)[C@@H](NC(=O)[C@H](CCCNC(=N)N)NC(C)=O)CCC(=O)NCCC[C@@H](C(N)=O)NC(=O)[C@H](Cc2c[nH]c3ccccc23)NC(=O)[C@H](CCCNC(=N)N)NC(=O)[C@@H](Cc2ccccc2)NC1=O` [No. 33, Ac-Arg-cyclo(Glu-Orn(Acetyl)-D-Phe-Arg-Trp-Orn)-NH2], for which, in assay [1] (setting [3]), the Ki is 7 nM. In assay [2], the Emax was 90% and the EC50 is 3 nM.
Turning to `CC(=O)N[C@@H](CCCNC(=N)N)C(=O)N[C@H]1CCC(=O)NCCC[C@@H](C(N)=O)NC(=O)[C@H](Cc2c[nH]c3ccccc23)NC(=O)[C@H](CCCNC(=N)N)NC(=O)[C@@H](Cc2ccccc2)NC(=O)[C@H](CC(N)=O)NC1=O` [No. 34, Ac-Arg-cyclo(Glu-Asn-D-Phe-Arg-Trp-Orn)-NH2], the Ki in assay [1] (setting [3]) stood at 6 nM. Moreover, the EC50 in assay [2] was 0.4 nM.
Turning to `CCCC[C@H](NC(C)=O)C(=O)N[C@H]1CCCNC(=O)CC[C@@H](C(=O)O)NC(=O)[C@H](Cc2c[nH]c3ccccc23)NC(=O)[C@H](CCCNC(=N)N)NC(=O)[C@@H](Cc2ccccc2)NC(=O)[C@H](Cc2c[nH]cn2)NC1=O` [No. 35, Ac-Nle-cyclo(Orn-His-D-Phe-Arg-Trp-Glu)-OH], in assay [1] (setting [3]), the Ki was 1 nM. Also, in assay [2], the maximal response (Emax) is 97% and the EC50 was 2 nM.
In the same order, the values of `CCCC[C@H](NC(C)=O)C(=O)N[C@H]1CCCNC(=O)CC[C@@H](C(N)=O)NC(=O)[C@H](Cc2c[nH]c3ccccc23)NC(=O)[C@H](CCCNC(=N)N)NC(=O)[C@@H](Cc2ccccc2)NC(=O)[C@H](Cc2c[nH]cn2)NC1=O` [No. 36, Ac-Nle-cyclo(Orn-His-D-Phe-Arg-Trp-Glu)-NH2] are 0.2 nM, 85% and 0.2 nM.
On to `CC(=O)N[C@@H](CCCNC(=N)N)C(=O)N[C@H]1CCCNC(=O)CC[C@@H](C(=O)O)NC(=O)[C@H](Cc2c[nH]c3ccccc23)NC(=O)[C@H](CCCNC(=N)N)NC(=O)[C@@H](Cc2ccccc2)NC(=O)[C@H](Cc2c[nH]cn2)NC1=O` [No. 37, Ac-Arg-cyclo(Orn-His-D-Phe-Arg-Trp-Glu)-OH] (Ac-R[Orn]H[dF]RWE-OH; lactam 2-7), for which, in assay [1] (setting [3]), the Ki amounted to 12 nM. Also, in assay [2], the maximal effect (Emax) was 88% and the EC50 was 0.6 nM.
On to `CC(=O)N[C@@H](CCCNC(=N)N)C(=O)N[C@H]1CCCNC(=O)CC[C@@H](C(N)=O)NC(=O)[C@H](Cc2c[nH]c3ccccc23)NC(=O)[C@H](CCCNC(=N)N)NC(=O)[C@@H](Cc2ccccc2)NC(=O)[C@H](Cc2c[nH]cn2)NC1=O` [No. 38, Ac-Arg-cyclo(Orn-His-D-Phe-Arg-Trp-Glu)-NH2] (Ac-R[Orn]H[dF]RWE-NH2; lactam 2-7), for which, in assay [1] (setting [3]), the inhibition constant (Ki) was 1 nM. Besides, in assay [2], the maximal effect (Emax) came out at 84% and the concentration giving a half-maximal response (EC50) came to 1 nM.
As to `CC(=O)N[C@@H](CCCCN)C(=O)N[C@H]1CCCNC(=O)CC[C@@H](C(N)=O)NC(=O)[C@H](Cc2c[nH]c3ccccc23)NC(=O)[C@H](CCCNC(=N)N)NC(=O)[C@@H](Cc2ccccc2)NC(=O)[C@H](Cc2c[nH]cn2)NC1=O` [No. 40, Ac-Lys-cyclo(Orn-His-D-Phe-Arg-Trp-Glu)-NH2] (Ac-K[Orn]H[dF]RWE-NH2; lactam 2-7), in assay [1], the Ki worked out at 3 nM. For the same compound, in assay [2], the Emax came out at 114% and the EC50 turned out to be 0.2 nM.
On to `CC(=O)N[C@@H](CCCNC(=N)N)C(=O)N[C@H]1CCCNC(=O)CC[C@@H](C(N)=O)NC(=O)[C@H](Cc2c[nH]c3ccccc23)NC(=O)[C@H](CCCNC(=N)N)NC(=O)[C@@H](Cc2ccccc2)NC(=O)[C@H](C)NC1=O` [No. 41, Ac-Arg-cyclo(Orn-Ala-D-Phe-Arg-Trp-Glu)-NH2] (Ac-R[Orn]A[dF]RWE-NH2; lactam 2-7), for which the Ki in assay [1] (setting [3]) came out at 19 nM. Moreover, in assay [2], the Emax came out at 52% and the EC50 came out at 7 nM.
`CC(=O)N[C@@H](CCCNC(=N)N)C(=O)N[C@H]1CCCNC(=O)CC[C@@H](C(N)=O)NC(=O)[C@H](Cc2c[nH]c3ccccc23)NC(=O)[C@H](CCCNC(=N)N)NC(=O)[C@@H](Cc2ccccc2)NC(=O)[C@H](CCN)NC1=O` [No. 43, Ac-Arg-cyclo(Orn-Dab-D-Phe-Arg-Trp-Glu)-NH2]: the inhibitory constant (Ki) in assay [1] was found to be 3 nM. Moreover, in assay [2], the maximum response (Emax) turned out to be 103% and the EC50 was 0.1 nM.
With `CC(=O)N[C@@H](CCCNC(=N)N)C(=O)N[C@H]1CCCNC(=O)CC[C@@H](C(N)=O)NC(=O)[C@H](Cc2c[nH]c3ccccc23)NC(=O)[C@H](CCCNC(=N)N)NC(=O)[C@@H](Cc2ccccc2)NC(=O)[C@@H]2CCCN2C1=O` [No. 47, Ac-Arg-cyclo(Orn-Pro-D-Phe-Arg-Trp-Glu)-NH2] (Ac-R[Orn]P[dF]RWE-NH2; lactam 2-7), the inhibition constant (Ki) in assay [1] (setting [3]) was 5 nM. Besides, in assay [2], the Emax is 54% and the EC50 is 6 nM.
Consider `CC(=O)N[C@@H](CCCNC(=N)N)C(=O)N[C@H]1CCCNC(=O)CC[C@@H](C(=O)O)NC(=O)[C@H](Cc2c[nH]c3ccccc23)NC(=O)[C@H](CCCNC(=N)N)NC(=O)[C@@H](Cc2ccccc2)NC(=O)[C@H](COCc2ccccc2)NC1=O` [No. 48, Ac-Arg-cyclo(Orn-Ser(Bzl)-D-Phe-Arg-Trp-Glu)-OH] (Ac-R[Orn]S(Bn)[dF]RWE-OH; lactam 2-7), for which the inhibitory constant (Ki) in assay [1] (setting [3]) is 5 nM. For the same compound, in assay [2], the maximal response (Emax) came out at 50% and the EC50 is 3 nM.
The like results for `CC(=O)N[C@@H](CCCNC(=N)N)C(=O)N[C@H]1CC(=O)NCCCC[C@@H](C(=O)O)NC(=O)[C@H](Cc2c[nH]c3ccccc23)NC(=O)[C@H](CCCNC(=N)N)NC(=O)[C@@H](Cc2ccccc2)NC(=O)[C@H](CCCN)NC1=O` [reference compound] were, in that order, 18 nM, 84% and 12 nM.
`CC(=O)N[C@@H](CCCNC(=N)N)C(=O)N[C@H]1CC(=O)NCCCC[C@@H](C(N)=O)NC(=O)[C@H](Cc2c[nH]c3ccccc23)NC(=O)[C@H](CCCNC(=N)N)NC(=O)[C@@H](Cc2ccccc2)NC(=O)[C@H](CCCN)NC1=O` [reference compound]: the Ki in assay [1] (setting [3]) was found to be 7 nM. Besides, in assay [2], the maximal response (Emax) amounted to 79%.
Turning to `CC(=O)N[C@@H](CCCNC(=N)N)C(=O)N[C@H]1CC(=O)NCCCC[C@@H](C(N)=O)NC(=O)[C@H](Cc2c[nH]c3ccccc23)NC(=O)[C@H](CCCNC(=N)N)NC(=O)[C@@H](Cc2ccccc2)NC(=O)[C@H](CCS(C)(=O)=O)NC1=O` [reference compound], in assay [1] (setting [3]), the Ki was 7 nM. For the same compound, the maximal response (Emax) in assay [2] is 29%.
Turning to `CC(=O)N[C@@H](CCCNC(=N)N)C(=O)N[C@H]1CC(=O)NCCCC[C@@H](C(N)=O)NC(=O)[C@H](Cc2c[nH]c3ccccc23)NC(=O)[C@H](CCCNC(=N)N)NC(=O)[C@@H](Cc2ccccc2)NC(=O)[C@@H]2C[C@@H](N)CN2C1=O` [reference compound], the Ki in assay [1] (setting [3]) was 5 nM. In assay [2], the maximum response (Emax) worked out at 61% and the EC50 was 8 nM.
As for `CC(=O)NCCC[C@@H]1NC(=O)[C@@H](NC(=O)[C@H](CCCNC(=N)N)NC(C)=O)CC(=O)NCCCC[C@@H](C(N)=O)NC(=O)[C@H](Cc2c[nH]c3ccccc23)NC(=O)[C@H](CCCNC(=N)N)NC(=O)[C@@H](Cc2ccccc2)NC1=O` [reference compound], in assay [1] (setting [3]), the inhibition constant (Ki) was 573 nM. Moreover, the Emax in assay [2] turned out to be 62%.
`CC(=O)NCC[C@@H]1NC(=O)[C@@H](NC(=O)[C@H](CCCNC(=N)N)NC(C)=O)CC(=O)NCCCC[C@@H](C(N)=O)NC(=O)[C@H](Cc2c[nH]c3ccccc23)NC(=O)[C@H](CCCNC(=N)N)NC(=O)[C@@H](Cc2ccccc2)NC1=O` [reference compound]: in assay [1], the inhibition constant Ki is 33 nM. Moreover, the Emax in assay [2] was found to be 69%.

The record behind these values is patent US20120077957A1, “Lactam-Bridged Melanocortin Receptor-Specific Peptides” (PALATIN TECHNOLOGIES, INC., priority 2009, published 2012).
